Measured values as given in patent US8097624B2, “Cycloalkyl derivatives of 3-hydroxy-4-pyridinones” (Apotex Inc., priority 2006, dated 2012).

Key:
[1] = test system: Iron Overloaded Rat; assay: Urinary and fecal iron excretion in the iron overloaded rat (first study, 450 μmoles/kg); type: in vivo; details: for urinary excretion of iron compared with deferiprone: 450 μmol/kg; for Fecal excretion (fecal iron, three days after chelator administration): 450 μmoles/kg oral, n=6, mean ± 1SD
Source text: The purpose of this study was to determine the effectiveness of Apo6619 and Apo6617 in promoting iron excretion in the iron overloaded rat model. Iron overloading was achieved by administration of iron dextran. Iron overloading using iron dextran has previously been used to assess chelator efficacy in mice (Kontoghiorghes G. J., Mol. Pharmacol. 1986, 30(6), 670-3; Bartfay et al., Cardiovasc Res. 1999, 43(4), 892-900), gerbils (Hershko et al., J. Lab Clin Med 2002, 139, 50-58), rats (Rakba N. Biochem Pharmacol. 1998, 55(11):1796-1806) and primates (Bergeron et. al., Blood, 1992, 79(7), 1882-1890). The iron loading regime used in this study results in a 20-fold increase in liver iron and a 3.8-fold increase in cardiac iron levels in male rats.
Six male Sprague-Dawley rats (weighing between 200-250 gms) were received from Charles River Laboratories, Montreal, Quebec, Canada. Rats were iron loaded by administration of iron dextran intraperitoneally at a dose of 100 mg/kg, twice weekly for a period of 4 weeks for a total of 8 injections (iron dextran, Sigma). The total volume of iron dextran injected was 1 mL/kg. Following an eight week period, rats were transferred to metabolic cages (one rat/cage). Once the animals were in the metabolic cages, excreta (both urine and feces) were collected daily for at least 3 day prior to and 4 days following the administration of each chelator. Each of the two chelators (Apo6619 and Apo6617) was administered consecutively. Chelators were administered as a single dose of 450 μmoles/kg by oral gavage at a dose volume of 2-4 mL/kg. The animals were weighed prior to dosing to enable exact dosage administration. Animals were checked daily (eyes, skin and movement) after chelator administration to determine if there were any obvious signs of ill health. Urine and feces were stored at −20° C. until analysis for total iron concentrations.
Rats were housed in a climate and light controlled environment (temperature: 19-25° C., relative humidity 40%, 12 hrs light/dark cycle) throughout the study. During the acclimatization, iron loading and equilibration phases, rats were placed in standard cages (2 rats/cage), fed standard rodent chow and given regular tap water ad libitum. Rats were transferred to metabolic cages (one rat/cage, Nalgene, Rochester N.Y.) after iron loading and equilibration. Three days before placement of the rats in the metabolic cages, rats were fed a low iron diet (3 ppm iron, Dyets Inc., Bethlehem, Pa.) and given Millipore water ad libitum. Rats were continued on the low iron diet for the duration of the study. The purpose of placing animals on a low iron diet was to reduce the background noise produced by dietary iron in the fecal samples.
A 50 mg/ml dosing solution of the chelator of formula I (570 mg) was first dissolved in a mixture of Millipore water (2 ml) and 6N HCl (0.4 ml) and brought up to the final volume (11.4 ml) with Millipore water (9 ml). Final pH of the solutions was adjusted to pH 4 with diluted sodium hydroxide solution. Solutions were protected from light and prepared freshly prior to each administration.
Urine and feces samples were shipped to the Trace Elements Laboratory at the London Health Sciences Center, London, Ontario, Canada for analysis of total iron concentration. Briefly, feces samples were prepared by adding water, heating to 98° C., vortexing and subsequently freeze drying. The samples were then mixed, and a representative subsample taken and digested with boiling HNO3 and H2O2. Feces samples were then diluted 1:100 with ultrapure water prior to running using a high resolution sector field ICP-MS (Finnigan Element 1). Urine samples were digested with 0.1% HNO3 and diluted 1/10 prior to running on the ICP-MS. Appropriate calibration curves using iron spiked samples and NIST traceable standards were used. Samples lying above or below the quantification range were re-run. […]

[2] = Metal complexation constants, Fe system (spectrophotometric titration; pM by Hyss); type: binding; details: for Log β3: Fe(III) overall complexation constant; for pFe^3+: total iron 10^−6 M, ligand 10^−5 M, pH 7.4, calculated from experimental pKa and complexation constants
Description: Compounds of this invention are designed to improve properties to known deferiprone analogues. […]. The definition of pFe^3+ used herein is the concentration of ferric ion in solution when the total amount of iron equals 10^−6 M and the concentration of ligand is 10^−5 M and pH is 7.4. It is calculated using experimental determined pKa and metal complexation constants using Hyperquad software (Version 2.1, Peter Gans, University of Leeds). The lowering of the pKa value of the C3 phenolic OH to less than 8.8 ensures that a higher pFe^3+ value when combined with a favorable complexation constant β3. The concept of complexation is detailed below.
The stepwise and overall complexation constants of a bidentate ligand such as 3-hydroxy-4-pyridinone follow: Fe(III)+Ligand→Fe[Ligand]1K1 Fe[Ligand]1+Ligand→Fe[Ligand]2K2 Fe[Ligand]2+Ligand→Fe[Ligand]3K3 Complexation constant β3=K1.K2.K3
Stepwise formation constants for M^n+-ligand systems were determined by spectrophotometric titration when metal complexes have a strong absorbance in the visible region due to ligand to metal charge transfer. In a typical experiment, the sample solution was prepared according to the following method: Apo6619 (10.7 mg) was weighed into an 80-ml beaker, followed by the addition of 0.1 M NaCl (50 ml). The mixture was sonicated for 10 minutes to give a clear colorless solution. Iron stock solution (atomic absorption standard, Aldrich, 496 μl, 8.93E-06 moles) was pipetted into the solution followed by the addition of 1.000 N NaOH (137 μl). The molar ratio between the total iron and the total Apo6619 was 1:5.4. The mixture was allowed to equilibrate at room temperature overnight. Nitrogen was allowed to bubble through the solution. 1.000 N Hydrochloric acid (3 ml) was then added to the solution to give pH 1.5. The solution was allowed to equilibrate at 22° C. for 3 hours.
A sipper system was used for the circulation of the sample solution between the beaker and the flow cell.
The sample solution was titrated against standard NaOH solutions at 22° C. to reach pH 6.89. After each addition of base the solution was allowed to equilibrate until a constant pH reading was reached. The pH and the UV-Vis spectrum were recorded for each measurement. For each measurement enough base was added so that there was a slight increase in the absorbance of the spectrum. The solution was titrated until there was no obvious increase in the spectra after several subsequent additions of base. Altogether 64 measurements were taken to finish the experiment.
[…]; pM^n+ is defined as −log [M(H2O)m]^n+ at physiological conditions, i.e.: pH 7.4, a ligand concentration of 10 μM, and a metal concentration of 1 μM.
To calculate pM^n+ for a MLn system, βn and pKa values are needed (βn are the formation constants for M^n++n L^− ? MLn; pKa are the equilibrium constants for L^−+n H^+ ? LHn^(n−1)+). The pM^n+ can be calculated by using Hyss software (Hyperquad Stimulation and Speciation software: HYSS2© 2000 Protonic Sofware).

[3] = single oral dose 450 μmoles/kg, n=6

SMILES	urinary excretion of iron compared with deferiprone [1]	Fecal excretion (fecal iron, three days after chelator administration) [1] [µg/day/kg]	urinary iron excretion one day after chelator administration [1, 3] [µg/day/kg]	urinary iron excretion second day after chelator administration [1, 3]	Log β3 [2]	pFe^3+ [2]	urinary iron excretion third day after chelator administration [1, 3] [µg/day/kg]	PM Fe(III) ([2]; pH 7.4, ligand 10 μM, metal 1 μM)
Cc1cc(=O)c(O)c(C(=O)NC2CC2)n1C [Apo6617, 3-Hydroxy-1,6-dimethyl-4-oxo-1,4-dihydro-pyridine-2-carboxylic Acid Cyclopropylamide]	significantly higher than deferiprone	4411 ± 790	164 ± 55	17 ± 13 µg/day/kg	33.6	20.8	–	–
Cc1c(O)c(=O)ccn1C [deferiprone, 1,2-dimethyl-3-hydroxy-4-pyridinone, reference compound]	–	2157 ± 169	80 ± 32	returned to baseline	36.3	19.7	–	–
CNC(=O)c1c(O)c(=O)cc(C)n1C1CC1 [Apo6619, 1-Cyclopropyl-3-hydroxy-6-methyl-4-oxo-1,4-dihydro-pyridine-2-carboxylic Acid Methylamide]	significantly higher than deferiprone	4154 ± 1245	240 ± 131	16 ± 5 µg/day/kg	33.4	20.7	5 ± 1	20.5
